# Laboratory results from PubChem BioAssay (NCI).
#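 Five concentrations, 48 hours, 96-well plates. GI50 marks 50% less growth. The concentration for full growth arrest is given as TGI.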
# Columns and labels:
# Experiment in all cases: inhibition of tumour cell growth, NCI panel, 48 h
# UACC-62 melanoma = system: UACC-62 melanoma
# HS 578T breast = system: HS 578T breast
# KM12 colon = system: KM12 colon
# CCRF-CEM leukemia = system: CCRF-CEM leukemia
# CAKI-1 renal = system: CAKI-1 renal
# HCC-2998 colon = system: HCC-2998 colon
# MALME-3M melanoma = system: MALME-3M melanoma
# OVCAR-5 ovarian = system: OVCAR-5 ovarian
# HOP-92 NSCLC = system: HOP-92 NSCLC
# SF-268 CNS = system: SF-268 CNS
# SN12C renal = system: SN12C renal
# HCT-15 colon = system: HCT-15 colon
# HOP-62 NSCLC = system: HOP-62 NSCLC
# MCF7 breast = system: MCF7 breast
# M14 melanoma = system: M14 melanoma
# UACC-257 melanoma = system: UACC-257 melanoma
# NCI-H460 lung = system: NCI-H460 lung
# NCI-H522 lung = system: NCI-H522 lung
# NCI-H23 lung = system: NCI-H23 lung
# OVCAR-8 ovarian = system: OVCAR-8 ovarian
# UO-31 renal = system: UO-31 renal
# COLO 205 colon = system: COLO 205 colon
# SK-MEL-2 melanoma = system: SK-MEL-2 melanoma
# RPMI-8226 leukemia = system: RPMI-8226 leukemia
# A549 NSCLC = system: A549 NSCLC
# EKVX NSCLC = system: EKVX NSCLC
# NCI/ADR-RES ovarian = system: NCI/ADR-RES ovarian
# HT29 colon = system: HT29 colon
# SF-539 CNS = system: SF-539 CNS
# DU-145 prostate = system: DU-145 prostate
# ACHN renal = system: ACHN renal
# RXF 393 renal = system: RXF 393 renal
# SK-OV-3 ovarian = system: SK-OV-3 ovarian
# HCT-116 colon = system: HCT-116 colon
# SK-MEL-28 melanoma = system: SK-MEL-28 melanoma
# LOX IMVI melanoma = system: LOX IMVI melanoma
# OVCAR-3 ovarian = system: OVCAR-3 ovarian
# PC-3 prostate = system: PC-3 prostate
# 786-0 renal = system: 786-0 renal
# OVCAR-4 ovarian = system: OVCAR-4 ovarian
# SF-295 CNS = system: SF-295 CNS
# NCI-H226 lung = system: NCI-H226 lung
# A498 renal = system: A498 renal
# T-47D breast = system: T-47D breast
# U251 CNS = system: U251 CNS
# MDA-MB-435 = system: MDA-MB-435
# K-562 leukemia = system: K-562 leukemia
# TK-10 renal = system: TK-10 renal
# MDA-MB-231 breast = system: MDA-MB-231 breast
# SK-MEL-5 melanoma = system: SK-MEL-5 melanoma
# BT-549 breast = system: BT-549 breast
# SNB-19 CNS = system: SNB-19 CNS
# IGROV1 ovarian = system: IGROV1 ovarian
smiles,measurement,setting,value
C=C(C)[C@@]12OC3(/C=C/C=C/CCCCC)O[C@@H]1[C@@H]1[C@@H]4O[C@]4(CO)[C@@H](O)[C@]4(O)C(=O)C(C)=C[C@H]4[C@@]1(O3)[C@H](C)[C@H]2OC(=O)c1ccccc1,GI50,UACC-62 melanoma,3.19 µM
same,TGI,UACC-62 melanoma,6.86 µM
same,GI50,HS 578T breast,< 0.01 µM
same,TGI,HS 578T breast,2.21 µM
same,GI50,KM12 colon,1.61 µM
same,TGI,KM12 colon,2.99 µM
same,GI50,CCRF-CEM leukemia,< 0.01 µM
same,TGI,CCRF-CEM leukemia,2.66 µM
same,GI50,CAKI-1 renal,< 0.01 µM
same,TGI,CAKI-1 renal,0.0347 µM
same,GI50,HCC-2998 colon,< 0.01 µM
same,TGI,HCC-2998 colon,1.8 µM
same,GI50,MALME-3M melanoma,11.3 µM
same,TGI,MALME-3M melanoma,26.9 µM
same,GI50,OVCAR-5 ovarian,4.43 µM
same,TGI,OVCAR-5 ovarian,8.62 µM
same,GI50,HOP-92 NSCLC,< 0.01 µM
same,TGI,HOP-92 NSCLC,2.13 µM
same,GI50,SF-268 CNS,1.7 µM
same,TGI,SF-268 CNS,3.15 µM
same,GI50,SN12C renal,1.49 µM
same,TGI,SN12C renal,2.83 µM
same,GI50,HCT-15 colon,1.42 µM
same,TGI,HCT-15 colon,2.9 µM
same,GI50,HOP-62 NSCLC,< 0.01 µM
same,TGI,HOP-62 NSCLC,4.84 µM
same,GI50,MCF7 breast,1.55 µM
same,TGI,MCF7 breast,3.31 µM
same,GI50,M14 melanoma,1.57 µM
same,TGI,M14 melanoma,5.38 µM
same,GI50,UACC-257 melanoma,8.13 µM
same,TGI,UACC-257 melanoma,21.5 µM
same,GI50,NCI-H460 lung,< 0.01 µM
same,TGI,NCI-H460 lung,2.29 µM
same,GI50,NCI-H522 lung,1.27 µM
same,TGI,NCI-H522 lung,2.71 µM
same,GI50,NCI-H23 lung,2.84 µM
same,TGI,NCI-H23 lung,8.12 µM
same,GI50,OVCAR-8 ovarian,2.77 µM
same,TGI,OVCAR-8 ovarian,7.08 µM
same,GI50,UO-31 renal,0.0221 µM
same,TGI,UO-31 renal,1.85 µM
same,GI50,COLO 205 colon,< 0.01 µM
same,TGI,COLO 205 colon,1.6 µM
same,GI50,SK-MEL-2 melanoma,1.48 µM
same,TGI,SK-MEL-2 melanoma,3.85 µM
same,GI50,RPMI-8226 leukemia,3.35 µM
same,TGI,RPMI-8226 leukemia,> 23.2 µM
same,GI50,A549 NSCLC,< 0.01 µM
same,TGI,A549 NSCLC,2.04 µM
same,GI50,EKVX NSCLC,1.28 µM
same,TGI,EKVX NSCLC,2.86 µM
same,GI50,NCI/ADR-RES ovarian,3.13 µM
same,TGI,NCI/ADR-RES ovarian,8.9 µM
same,GI50,HT29 colon,1.4 µM
same,TGI,HT29 colon,2.94 µM
same,GI50,SF-539 CNS,1.41 µM
same,TGI,SF-539 CNS,2.8 µM
same,GI50,DU-145 prostate,0.105 µM
same,TGI,DU-145 prostate,2.11 µM
same,GI50,ACHN renal,1.16 µM
same,TGI,ACHN renal,4.43 µM
same,GI50,RXF 393 renal,1.87 µM
same,TGI,RXF 393 renal,3.49 µM
same,GI50,SK-OV-3 ovarian,2.44 µM
same,TGI,SK-OV-3 ovarian,4.9 µM
same,GI50,HCT-116 colon,1.65 µM
same,TGI,HCT-116 colon,3.33 µM
same,GI50,SK-MEL-28 melanoma,1.18 µM
same,TGI,SK-MEL-28 melanoma,2.42 µM
same,GI50,LOX IMVI melanoma,1.1 µM
same,TGI,LOX IMVI melanoma,2.29 µM
same,GI50,OVCAR-3 ovarian,1.68 µM
same,TGI,OVCAR-3 ovarian,3.08 µM
same,GI50,PC-3 prostate,1.46 µM
same,TGI,PC-3 prostate,3.3 µM
same,GI50,786-0 renal,1.23 µM
same,TGI,786-0 renal,2.53 µM
same,GI50,OVCAR-4 ovarian,1.91 µM
same,TGI,OVCAR-4 ovarian,3.82 µM
same,GI50,SF-295 CNS,< 0.01 µM
same,TGI,SF-295 CNS,4.9 µM
same,GI50,NCI-H226 lung,1.68 µM
same,TGI,NCI-H226 lung,3.21 µM
same,GI50,A498 renal,< 0.01 µM
same,GI50,T-47D breast,2.2 µM
same,TGI,T-47D breast,7.25 µM
same,GI50,U251 CNS,1.24 µM
same,TGI,U251 CNS,2.48 µM
same,GI50,MDA-MB-435,< 0.01 µM
same,TGI,MDA-MB-435,4.56 µM
same,GI50,K-562 leukemia,< 0.01 µM
same,TGI,K-562 leukemia,1.87 µM
same,GI50,TK-10 renal,< 0.0106 µM
same,TGI,TK-10 renal,2.17 µM
same,GI50,MDA-MB-231 breast,0.118 µM
same,TGI,MDA-MB-231 breast,2.27 µM
same,GI50,SK-MEL-5 melanoma,< 0.01 µM
same,TGI,SK-MEL-5 melanoma,1.86 µM
same,GI50,BT-549 breast,1.66 µM
same,TGI,BT-549 breast,4.38 µM
same,GI50,SNB-19 CNS,1.92 µM
same,TGI,SNB-19 CNS,3.91 µM
same,GI50,IGROV1 ovarian,1.62 µM
same,TGI,IGROV1 ovarian,3.18 µM
